We go through ten molecules from patent publication US20140079632A1, “ACTIVITY-BASED PROBES FOR THE UROKINASE P[…]” (UNIVERSITEIT ANTWERPEN, priority 2011, published 2014).

What all share (format): biochemical
Assay [1] has as its target T1, tPA (recombinant) (Homo sapiens, UniProt P00750).
T1 construct: purchased Nodia
In words: Selectivity: tPA inhibition, substrate Biophen CS-05(88). As to conditions: 15 min preincubation; Tris buffer pH 8.3; 1.25 mM substrate. As for the experimental part: (§1) The substrate and human enzyme were obtained from Nodia. The reaction was monitored at 405 nm, and the initial rate was determined between 0 and 0.25 absorbance units in 20 min. […] A 50 mM Tris buffer, pH 8.8, was used. From each inhibitor concentration, 5 μL was added, obtaining a final concentration from 0 to 250 μM in a total volume of 0.2 mL. Activity measurements were routinely performed in duplicate. […] IC50 values were obtained by fitting the data with the four-parameter logistics equation using Grafit 5.
(§2) The IC50 values for plasmin (from human plasma, Sigma), tPA (recombinant, Nodia), thrombin (from human plasma, Sigma), and FXa were determined in the same way as for uPA.
(§3) For tPA and thrombin, Tris buffer, pH 8.3, was used, for FXa, Tris buffer, pH 8.3, for plasmin, Tris buffer, pH 7.4, was used.

Assay [2] addresses FXa (Homo sapiens, UniProt P00742). In words: Selectivity: FXa inhibition, substrate Biophen CS-11(32). As to conditions: for FXa % (I) @ 250: at 250 (μM).
In assay [3] the target is T2, uPA (Homo sapiens, UniProt P00749).
T2 construct: purchased Nodia
The assay can be described thus: uPA inhibition: in vitro evaluation, IC50 with chromogenic substrate Biophen CS-61(44). As to conditions: 15 min preincubation at 37° C.; Tris buffer pH 8.8; 250 μM substrate. The protocol: Enzymatic activity was measured at 37° C. in a Spectramax 340 (Molecular Devices) microtiter plate reader using the chromogenic substrate Biophen CS-61(44) (LpyroGlu-Gly L-Arg-p-NA.HCl), with a Km of 80 μM.
The substrate and human enzyme were obtained from Nodia. The reaction was monitored at 405 nm, and the initial rate was determined between 0 and 0.25 absorbance units in 20 min. The reaction mixture contained 250 μM substrate and approximately 1 mU of enzyme in 145 μL of buffer in a final volume of 200 μL. A 50 mM Tris buffer, pH 8.8, was used. From each inhibitor concentration, 5 μL was added, obtaining a final concentration from 0 to 250 μM in a total volume of 0.2 mL. Activity measurements were routinely performed in duplicate. […] IC50 values were obtained by fitting the data with the four-parameter logistics equation using Grafit 5.
where s=slope factor, v=rate, I0=inhibitor concentration, and range=the fitted uninhibited value minus the background. The equation assumes the y falls with increasing x.
(§4) Inhibitor stock solutions were prepared in DMSO and stored at −20° C. Because the compounds described in this paper completely inactivate uPA following pseudofirst-order kinetics, the IC50 value is inversely correlated with the second-order rate constant of inactivation. For a simple pseudofirst-order inactivation process, the activity after incubation with inhibitor (vi) varies with the inhibitor concentration (i), as described in the following equation: […]

The target of assay [4] is T3, thrombin (from human plasma) (Homo sapiens, UniProt P00734).
T3 construct: thrombin (from human plasma, Sigma); purchased Sigma; host or cells: human plasma
In words: Selectivity: thrombin inhibition, substrate Biophen CS-21(66). As to conditions: 15 min preincubation; Tris buffer pH 8.3; 580 μM substrate. The protocol:
as §1, §2, §3

Assay [5] has as its target T2, uPA. In words: uPA inactivation kinetics from progress curves (kobs versus inhibitor concentration, kapp). Conditions: asterisked: compound showed a two-step mechanism, kapp calculated as k2/K1; 250 μM substrate; 37° C. The protocol: as §4
where vo is the activity in absence of inhibitor, k is the second-order rate constant of inactivation, and t is the time. The inactivation rate constant was determined from the time course of inhibition.
The inhibitor was mixed with the substrate (250 μM final concentration), and the buffer solution with the enzyme was added at the time zero. The inhibitor concentrations were chosen to obtain total inhibition of the enzyme within 20 min. The progress curves show the absorbance of p-nitroanilide produced as a function of time. Initially, no inhibitor is bound to the enzyme, and the tangent to the progress curve (dA/dt) is proportional to the concentration of the free enzyme. The concentration of free enzyme decreases over time due to the kinetics of inhibitor binding, as described above. Progress curves were recorded in pseudofirst-order conditions ([I]0>>[E]0) and with less than 10% conversion of the substrate during the entire time course. In these conditions, dA/dt decreases exponentially with time. The progress curves were fitted with the integrated rate equation to yield a value for kobs, a pseudofirst-order rate constant
At=v0[1−e^−k^obs^t]/kobs+A0
where At=absorbance at time t, A0=absorbance at time zero, and v0=uninhibited initial rate.
The apparent second-order rate constant (kapp) was calculated from the slope of the linear part of the plot of kobs versus the inhibitor concentration ([I]0). In case of competition between the inhibitor and the substrate, kapp is smaller than the “real” second order rate constant k discussed above because a certain fraction of the enzyme is present as an enzyme-substrate complex. kapp depends on the substrate concentration used in the experiment, as described by Lambeir et al.^40 For most final compounds, the kobs versus [I]0 plot was not linear, but could be fitted with a hyperbolic function: kobs=k2[I]0/(K1+[I]0) (two step mechanism). Where K1 is the dissociation constant of the reversible enzyme-inhibitor complex and k2 is the first-order rate constant associated with irreversible modification of the enzyme. A kapp could be calculated as k2/K1.

The target in assay [6] is T4, plasmin (from human plasma) (Homo sapiens, UniProt P00747).
T4 construct: purchased Sigma; host or cells: human plasma
The assay can be described thus: Selectivity: plasmin inhibition, substrate Biophen CS-21(66). Conditions: 15 min preincubation; Tris buffer pH 7.4; 580 μM substrate. The protocol:
as §1, §2, §3

One may read the IC50 as the concentration needed to halve the response being measured.

T4 sequence (P00747 581-810 limits assumed): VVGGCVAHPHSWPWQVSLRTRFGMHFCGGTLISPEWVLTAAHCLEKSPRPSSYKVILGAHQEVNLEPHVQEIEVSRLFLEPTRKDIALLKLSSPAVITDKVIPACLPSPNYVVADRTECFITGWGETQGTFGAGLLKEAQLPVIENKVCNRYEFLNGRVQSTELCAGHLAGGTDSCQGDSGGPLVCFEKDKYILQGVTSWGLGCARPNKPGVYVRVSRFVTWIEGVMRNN
T4 sequence (P00747 97-580 partner limits assumed): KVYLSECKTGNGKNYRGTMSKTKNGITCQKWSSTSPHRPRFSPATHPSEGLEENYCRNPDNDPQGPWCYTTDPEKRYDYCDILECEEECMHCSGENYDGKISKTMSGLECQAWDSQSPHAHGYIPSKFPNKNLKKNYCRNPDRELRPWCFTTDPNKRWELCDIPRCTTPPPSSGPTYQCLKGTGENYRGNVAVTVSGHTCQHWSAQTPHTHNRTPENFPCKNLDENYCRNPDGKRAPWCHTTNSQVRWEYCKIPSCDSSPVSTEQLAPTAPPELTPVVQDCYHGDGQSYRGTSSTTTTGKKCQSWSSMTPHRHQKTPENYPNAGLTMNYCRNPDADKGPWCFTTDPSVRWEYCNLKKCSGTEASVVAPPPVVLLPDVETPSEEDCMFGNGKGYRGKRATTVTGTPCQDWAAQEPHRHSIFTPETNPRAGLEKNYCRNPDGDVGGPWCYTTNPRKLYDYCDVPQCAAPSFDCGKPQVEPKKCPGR
T1 sequence (P00750 36-562, species assumed): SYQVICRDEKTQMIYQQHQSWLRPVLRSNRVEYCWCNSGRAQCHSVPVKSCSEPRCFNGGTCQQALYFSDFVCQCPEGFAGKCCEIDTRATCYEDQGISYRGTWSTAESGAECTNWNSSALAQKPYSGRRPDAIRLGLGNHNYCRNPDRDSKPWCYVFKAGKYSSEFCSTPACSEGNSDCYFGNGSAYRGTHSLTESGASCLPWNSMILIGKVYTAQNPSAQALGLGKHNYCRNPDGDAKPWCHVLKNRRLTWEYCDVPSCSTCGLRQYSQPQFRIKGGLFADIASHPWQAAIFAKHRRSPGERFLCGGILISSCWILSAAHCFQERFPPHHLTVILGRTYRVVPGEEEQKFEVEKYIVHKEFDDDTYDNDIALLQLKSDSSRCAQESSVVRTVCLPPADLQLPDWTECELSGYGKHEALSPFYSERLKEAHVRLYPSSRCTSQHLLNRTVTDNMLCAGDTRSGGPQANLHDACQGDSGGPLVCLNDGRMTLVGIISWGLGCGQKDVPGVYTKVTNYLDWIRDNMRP
Sequence of FXa (P00742 235-488 limits assumed): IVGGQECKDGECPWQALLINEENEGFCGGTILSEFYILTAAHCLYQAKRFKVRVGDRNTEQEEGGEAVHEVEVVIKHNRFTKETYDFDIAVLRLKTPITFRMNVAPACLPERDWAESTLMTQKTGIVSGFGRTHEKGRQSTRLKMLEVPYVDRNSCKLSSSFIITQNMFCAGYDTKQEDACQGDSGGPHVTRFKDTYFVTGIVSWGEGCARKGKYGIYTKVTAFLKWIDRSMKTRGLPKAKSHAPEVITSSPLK
Sequence of FXa (P00742 41-179 partner limits assumed): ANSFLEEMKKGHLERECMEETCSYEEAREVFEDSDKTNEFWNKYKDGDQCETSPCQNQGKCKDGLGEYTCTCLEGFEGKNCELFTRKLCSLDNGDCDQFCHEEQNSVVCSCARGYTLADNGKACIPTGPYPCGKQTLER

In the case of `N=C(N)Nc1ccc(CC(NC(=O)OCCCc2cn(CCOCCOCCOCCNC(=O)CCCC[C@@H]3SC[C@@H]4NC(=O)N[C@@H]43)nn2)P(=O)(Oc2ccccc2)Oc2ccccc2)cc1.O=C(O)C(F)(F)F` (stereo partly drawn) [Final compound 7, 3-(1-(13-oxo-17-((3aS,4S,6aR)-2-oxohexahydro-1H-thieno[3,4-d]imidazol-4-yl)-3,6,9-trioxa-12-azaheptadecyl)-1H-1,2,3-triazol-4-yl)propyl (1-(diphenoxyphosphoryl)-2-(4-guanidinophenyl)ethyl)carbamate 2,2,2-trifluoroacetate], the IC50 is 58 ± 6 µM in assay [1], 15.6 ± 1 nM in assay [3], 14.1 ± 0.3 µM in assay [4] and 4.7 ± 0.1 µM in assay [6]. Further, the “FXa % (I) @ 250” value in assay [2] amounted to 73% I @ 250 ^. Moreover, the “uPA: kapp” value in assay [5] is 86 × 10^2 ± 10 × 10^2 * M^−1 s^−1.
Regarding `Cl.N=C(N)Nc1ccc(CC(NC(=O)OCCCc2cn(CCOCCOCCOCCNC(=O)c3ccc(F)cc3)nn2)P(=O)(Oc2ccccc2)Oc2ccccc2)cc1` (stereo not drawn) [Final compound 8, 3-(1-(1-(4-fluorophenyl)-1-oxo-5,8,11-trioxa-2-azamidecan-13-yl)-1H-1,2,3-triazol-4-yl)propyl (1-(diphenoxyphosphoryl)-2-(4-guanidinophenyl)ethyl)carbamate hydrochloride], the IC50 in assay [1] is 46 ± 5 µM; in assay [2] (15 min preincubation, Tris buffer pH 8.3, 522 μM substrate), ~62 µM; in assay [3], 19 ± 2 nM; in assay [4], 13.2 ± 0.6 µM; in assay [6] it was 5.9 ± 0.8 µM. The “uPA: kapp” value in assay [5] is listed as 68 × 10^2 ± 25 × 10^2 * M^−1 s^−1.
Turning to `C#CCOCCOC(=O)NC(Cc1ccc(NC(=N)N)cc1)P(=O)(Oc1ccccc1)Oc1ccccc1.O=C(O)C(F)(F)F` (stereo not drawn) [Intermediate 55, 2-(prop-2-ynyloxy)ethyl 1-(diphenoxyphosphoryl)-2-(4-guanidinophenyl)ethyl carbamate 2,2,2-trifluoroacetate], the half-inhibitory concentration (IC50) in assay [1] was determined as 66 ± 13 µM; in assay [3] it was 8.8 ± 0.8 nM; in assay [4], 33 ± 4 µM; in assay [6], 11 ± 1 µM. In addition, in assay [2], the “FXa % (I) @ 250” value came out at 50% @ 250. Moreover, the “uPA: kapp” value in assay [5] was 19 × 10^3 ± 4 × 10^3 * M^−1 s^−1.
Take `C#CCOCCOCCOC(=O)NC(Cc1ccc(NC(=N)N)cc1)P(=O)(Oc1ccccc1)Oc1ccccc1.O=C(O)C(F)(F)F` (stereo not drawn) [Intermediate 56, 2-(2-(prop-2-ynyloxy)ethoxy)ethyl 1-(diphenoxyphosphoryl)-2-(4-guanidinophenyl)ethylcarbamate 2,2,2-trifluoroacetate]: the 50% inhibitory concentration (IC50) in assay [1] was found to be 65 ± 9 µM; in assay [3], 8.5 ± 1.2 nM; in assay [4] it was 20 ± 3 µM; in assay [6], 7.8 ± 0.6 µM. The “FXa % (I) @ 250” value in assay [2] is 58% @ 250. Besides, the “uPA: kapp” value in assay [5] was 12 × 10^3 ± 5 × 10^3 * M^−1 s^−1.
As to `C#CCOCCOCCOCCOC(=O)NC(Cc1ccc(NC(=N)N)cc1)P(=O)(Oc1ccccc1)Oc1ccccc1.O=C(O)C(F)(F)F` (stereo not drawn) [Intermediate 57, 2-(2-(2-(prop-2-ynyloxy)ethoxy)ethoxy)ethyl 1-(diphenoxyphosphoryl)-2-(4-guanidinophenyl)ethylcarbamate 2,2,2-trifluoroacetate], the IC50 is 67 ± 7 µM in assay [1], 11 ± 1 nM in assay [3], 21 ± 5 µM in assay [4] and 9 ± 2 µM in assay [6]. Also, the “FXa % (I) @ 250” value in assay [2] worked out at 54% @ 250. For the same molecule, the “uPA: kapp” value in assay [5] is 11 × 10^3 ± 4 × 10^3 * M^−1 s^−1.
`C#CCCCOC(=O)NC(Cc1ccc(NC(=N)N)cc1)P(=O)(Oc1ccccc1)Oc1ccccc1.O=C(O)C(F)(F)F` (stereo not drawn) [Intermediate 58, pent-4-ynyl 1-(diphenoxyphosphoryl)-2-(4-guanidinophenyl)ethylcarbamate 2,2,2-trifluoroacetate]: the IC50 in assay [1] was determined as 29 ± 2 µM; in assay [3], 8 ± 0.5 nM; in assay [4], 12.2 ± 0.3 µM; in assay [6], 3.4 ± 0.4 µM. Further, in assay [2], the “FXa % (I) @ 250” value stood at 50% @ 250. Also, the “uPA: kapp” value in assay [5] is on record as 30 × 10^3 ± 9 × 10^3 * M^−1 s^−1.
Turning to `O=C(O)C(F)(F)F.[N-]=[N+]=NCCCCCCOC(=O)NC(Cc1ccc(NC(=N)N)cc1)P(=O)(Oc1ccccc1)Oc1ccccc1` (stereo not drawn) [Intermediate 59, 6-azidohexyl 1-(diphenoxyphosphoryl)-2-(4-guanidinophenyl)ethylcarbamate 2,2,2-trifluoroacetate], the half-maximal inhibitory concentration (IC50) turned out to be 16.7 ± 1.7 µM in assay [1], 9.6 ± 1.9 nM in assay [3], 2.4 ± 0.2 µM in assay [4] and 3.6 ± 0.3 µM in assay [6]. In assay [2], the “FXa % (I) @ 250” value was determined as 61% @ 250. In addition, in assay [5], the “uPA: kapp” value is recorded as 14 × 10^3 ± 3 × 10^3 * M^−1 s^−1.
As for `O=C(O)C(F)(F)F.[N-]=[N+]=NCCOCCOC(=O)NC(Cc1ccc(NC(=N)N)cc1)P(=O)(Oc1ccccc1)Oc1ccccc1` (stereo not drawn) [Intermediate 60, 2-(2-azidoethoxy)ethyl 1-(diphenoxyphosphoryl)-2-(4-guanidinophenyl)ethyl carbamate 2,2,2-trifluoroacetate], the IC50 in assay [1] amounted to 56 ± 53 µM; in assay [3], 5.2 ± 1 nM; in assay [4] it was 11.8 ± 0.6 µM; in assay [6], 7.9 ± 0.3 µM. Further, in assay [2], the “FXa % (I) @ 250” value stood at 57% @ 250. Further, the “uPA: kapp” value in assay [5] is reported as 19 × 10^3 ± 8 × 10^3 * M^−1 s^−1.
Regarding `O=C(O)C(F)(F)F.[N-]=[N+]=NCCOCCOCCOCCOC(=O)NC(Cc1ccc(NC(=N)N)cc1)P(=O)(Oc1ccccc1)Oc1ccccc1` (stereo not drawn) [Intermediate 62, 2-(2-(2-(2-azidoethoxy)ethoxy)ethoxy)ethyl 1-(diphenoxyphosphoryl)-2-(4-guanidinophenyl)ethylcarbamate 2,2,2-trifluoroacetate], the IC50 in assay [1] was determined as 70 ± 11 µM; in assay [3], 15 ± 2 nM; in assay [4] it was 29 ± 5 µM; in assay [6] it was 9 ± 0.7 µM. In addition, the “FXa % (I) @ 250” value in assay [2] is listed as 48% @ 250. Moreover, the “uPA: kapp” value in assay [5] is 9 × 10^3 ± 4 × 10^3 * M^−1 s^−1.
Regarding `C#CCCCOC(=O)NC(Cc1ccc(NC(=N)N)cc1)P(=O)(Oc1ccc(NC(C)=O)cc1)Oc1ccc(NC(C)=O)cc1` (stereo not drawn) [Intermediate 63, pent-4-ynyl 1-(bis(4-acetamidophenoxy)phosphoryl)-2-(4-guanidinophenyl)ethyl carbamate 2,2,2-trifluoroacetate], the IC50 was 24 ± 4 µM in assay [1], 3.5 ± 1.7 nM in assay [3], 2.1 ± 0.2 µM in assay [4] and 1.4 ± 0.1 µM in assay [6]. In assay [2], the “FXa % (I) @ 250” value is 70% @ 250. Moreover, the “uPA: kapp” value in assay [5] was 40 × 10^3 ± 8 × 10^3 * M^−1 s^−1.
